Tests used:
[1] = Antimelanogenic activity in theophylline-stimulated mouse B16-4A5 cells assessed as inhibition of melanogenesis at 3 uM after 72 hrs relative to control; type: functional; conditions: B16-4A5, 72 h
[2] = Antimelanogenic activity in theophylline-stimulated mouse B16-4A5 cells assessed as inhibition of melanogenesis at 10 uM after 72 hrs relative to control; type: functional; conditions: B16-4A5, 72 h
[3] = Antimelanogenic activity in theophylline-stimulated mouse B16-4A5 cells assessed as inhibition of melanogenesis after 72 hrs relative to control; type: functional, cell-based
[4] = Cytotoxicity against theophylline-stimulated mouse B16-4A5 cells assessed as cell viability at 3 uM after 72 hrs by MTT assay relative to control; type: toxicity; conditions: theophylline-stimulated B16-4A5 cells, read-out: Activity
[5] = Cytotoxicity against theophylline-stimulated mouse B16-4A5 cells assessed as cell viability at 10 uM after 72 hrs by MTT assay relative to control; type: toxicity; conditions: theophylline-stimulated B16-4A5 cells, read-out: Activity
[6] = Cytotoxicity against theophylline-stimulated mouse B16-4A5 cells assessed as cell viability at 30 uM after 72 hrs by MTT assay relative to control; type: toxicity; conditions: theophylline-stimulated B16-4A5 cells, read-out: Activity
[7] = Cytotoxicity against theophylline-stimulated mouse B16-4A5 cells assessed as cell viability at 100 uM after 72 hrs by MTT assay relative to control; type: toxicity; conditions: theophylline-stimulated B16-4A5 cells, read-out: Activity
cells [8] = conditions: Mus musculus, B16-4A5, 72 h, read-out: INH
Description: Antimelanogenic activity in theophylline-stimulated mouse B16-4A5 cells assessed as inhibition of melanogenesis at 30 uM after 72 hrs relative to control

cells [9] = conditions: Mus musculus, B16-4A5, 72 h, read-out: INH; remark: listed apart in the source
[10] = Antimelanogenic activity in theophylline-stimulated mouse B16-4A5 cells assessed as inhibition of melanogenesis at 0.3 uM after 72 hrs relative to control; type: functional; conditions: B16-4A5, 72 h
[11] = Antimelanogenic activity in theophylline-stimulated mouse B16-4A5 cells assessed as inhibition of melanogenesis at 1 uM after 72 hrs relative to control; type: functional; conditions: B16-4A5, 72 h
[12] = Cytotoxicity against theophylline-stimulated mouse B16-4A5 cells assessed as cell viability at 0.3 uM after 72 hrs by MTT assay relative to control; type: toxicity; conditions: theophylline-stimulated B16-4A5 cells, read-out: Activity
[13] = Cytotoxicity against theophylline-stimulated mouse B16-4A5 cells assessed as cell viability at 1 uM after 72 hrs by MTT assay relative to control; type: toxicity; conditions: theophylline-stimulated B16-4A5 cells, read-out: Activity
[14] = Potency index, ratio of arbutin IC50 to compound IC50 for antimelanogenic activity in mouse B16-4A5 cells; type: functional
[15] = Downregulation of tyrosinase expression in theophylline-stimulated mouse B16-4A5 cells assessed as ratio of tyrosinase mRNA expression to beta-actin mRNA expression at 3 uM after 72 hrs by qRT-PCR analysis (reference value: […] +/- […]); type: functional, cell-based
[16] = Downregulation of tyrosinase expression in theophylline-stimulated mouse B16-4A5 cells assessed as ratio of tyrosinase mRNA expression to beta-actin mRNA expression at 10 uM after 72 hrs by qRT-PCR analysis (reference value: […] +/- […]); type: functional, cell-based
[17] = Downregulation of TRP1 expression in theophylline-stimulated mouse B16-4A5 cells assessed as ratio of TRP1 mRNA expression to beta-actin mRNA expression at 3 uM after 72 hrs by qRT-PCR analysis (reference value: […] +/- […]); type: functional, cell-based
[18] = Downregulation of TRP1 expression in theophylline-stimulated mouse B16-4A5 cells assessed as ratio of TRP1 mRNA expression to beta-actin mRNA expression at 10 uM after 72 hrs by qRT-PCR analysis (reference value: […] +/- […]); type: functional, cell-based
[19] = Downregulation of TRP2 expression in theophylline-stimulated mouse B16-4A5 cells assessed as ratio of TRP2 mRNA expression to beta-actin mRNA expression at 3 uM after 72 hrs by qRT-PCR analysis (reference value: […] +/- […]); type: functional, cell-based
[20] = Downregulation of TRP2 expression in theophylline-stimulated mouse B16-4A5 cells assessed as ratio of TRP2 mRNA expression to beta-actin mRNA expression at 10 uM after 72 hrs by qRT-PCR analysis (reference value: […] +/- […]); type: functional, cell-based

SMILES	inhibition at 3 µM [1] [%]	inhibition at 10 µM [2] [%]	IC50 [3] [µM]	viability at 72 h, 3 µM [4] [%]	viability at 72 h, 10 µM [5] [%]	viability at 72 h, 30 µM [6] [%]	viability at 72 h, 100 µM [7] [%]	inhibition at 30 µM (cells [8]) [%]	inhibition at 100 µM (cells [9]) [%]	inhibition at 0.3 µM [10] [%]	inhibition at 1 µM [11] [%]	viability at 72 h, 0.3 µM [12] [%]	viability at 72 h, 1 µM [13] [%]	Ratio IC50 [14]	Ratio [15]	Ratio [16]	Ratio [17]	Ratio [18]	Ratio [19]	Ratio [20]
O=C/C=C/c1ccc(O)cc1 [p-HYDROXYCINNAMALDEHYDE]	8.9	12.8	18.3	103	108	94.3	66.8	67.4	104	–	–	–	–	–	–	–	–	–	–	–
C=CC(OC/C=C/c1ccc(O)cc1)c1ccc(O)cc1 (racemic)	50.9	77.4	3	104	105	–	–	–	–	26.7	43.6	102	95.1	–	–	–	–	–	–	–
COc1cc(/C=C/CO)ccc1OC(C)=O	5.5	12.9	16.9	90.6	85.9	60.1	41.7	102	63.3	–	–	–	–	–	–	–	–	–	–	–
COc1cc(/C=C/CO)ccc1O [CONIFERYL ALCOHOL]	35.9	44.5	16.1	98.9	98.2	88	33.1	64.2	-3	–	–	–	–	–	–	–	–	–	–	–
CCC(=O)c1ccc(O)cc1 [PAROXYPROPIONE]	4.1	-3.6	–	111	116	117	125	-1.9	-3.6	–	–	–	–	–	–	–	–	–	–	–
C=C[C@H](O)c1ccc(OC(C)=O)c(OC)c1	5	10.9	–	104	114	113	124	11.7	22.9	–	–	–	–	–	–	–	–	–	–	–
CC(=O)Oc1ccc(/C=C/CO)cc1	10.7	18	29.4	92.9	85.8	65.5	44.9	96.9	94.8	–	–	–	–	–	–	–	–	–	–	–
C=C[C@H](OC/C=C/c1ccc(O)cc1)c1ccc(O)cc1	46.4	70.5	3.3	120	114	–	–	–	–	40.4	46.4	111	119	–	–	–	–	–	–	–
OC/C=C/c1ccc(O)cc1	-3.4	-2.8	> 100	98.9	98.4	116	110	35.8	46.9	–	–	–	–	–	–	–	–	–	–	–
C=C[C@@H](OC/C=C/c1ccc(O)cc1)c1ccc(O)cc1	47.7	80.2	3.2	103	93.9	–	–	–	–	32.9	47.1	106	107	–	–	–	–	–	–	–
C=C[C@H](OC(C)=O)c1ccc(OC(C)=O)c(OC)c1	16.8	84.4	5.6	101	42.3	–	–	–	–	-4.9	15.3	92	105	>25 - 70	1.1	0.8	0.52	0.29	0.89	0.88
